Six compounds from PubChem BioAssay (NCI) can be followed below.

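Briefly, cells in 96-well plates were exposed to five compound concentrations for 48 h, and endpoints were estimated by linear interpolation. Abbreviation: GI50, concentration required for 50% inhibition of growth. TGI is the concentration that stops growth completely.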

Some test systems named below: HOP-62 NSCLC; DU-145 prostate; BT-549 breast; UACC-62 melanoma; SN12C renal; K-562 leukemia; OVCAR-3 ovarian; CAKI-1 renal; OVCAR-8 ovarian; COLO 205 colon.
Common to all, as to test: growth of human tumour cells (NCI), 48 h

For `COc1cc(-c2ncn(/C=C\c3nnco3)n2)cc(C(F)(F)F)c1`, the GI50 is 0.403 µM in the assay with HOP-62 NSCLC; 0.416 µM in the assay on DU-145 prostate; 0.125 µM in the assay on BT-549 breast; 0.354 µM with UACC-62 melanoma; 0.723 µM with SN12C renal; 0.122 µM in the assay on K-562 leukemia. Also, the GI50 in the assay on OVCAR-3 ovarian was 0.12 µM; with CAKI-1 renal it was 0.154 µM; with OVCAR-8 ovarian, 0.0813 µM; in the assay on COLO 205 colon, 0.0675 µM. For the same compound, the TGI in the assay on HOP-62 NSCLC is greater than 47 µM; in the assay on DU-145 prostate, greater than 100 µM; in the assay on BT-549 breast it was 14.3 µM; in the assay on UACC-62 melanoma, 13.8 µM; in the assay on SN12C renal it was greater than 83.2 µM; in the assay with K-562 leukemia, greater than 100 µM. The TGI is 2.69 µM in the assay with OVCAR-3 ovarian, greater than 100 µM in the assay on CAKI-1 renal, greater than 47 µM in the assay with OVCAR-8 ovarian and greater than 24.7 µM in the assay with COLO 205 colon.

In the case of `CN1C(=NCCO)NS(=O)(=O)c2ccccc21`, the TGI with HOP-62 NSCLC, with DU-145 prostate, in the assay with BT-549 breast, in the assay with UACC-62 melanoma, with SN12C renal and in the assay on K-562 leukemia was greater than 100 µM in each case. Moreover, the TGI in the assay on OVCAR-3 ovarian, with CAKI-1 renal, with OVCAR-8 ovarian and in the assay with COLO 205 colon was greater than 100 µM throughout.

In the case of `COc1ccc(-c2c3c(N)c4c(nc3nc3c2c(C)nn3-c2ccccc2)CCCC4)cc1`, the GI50 with HOP-62 NSCLC is 14.1 µM; in the assay on DU-145 prostate, 4.72 µM; in the assay on BT-549 breast, 17.2 µM; in the assay on UACC-62 melanoma, 13.7 µM; in the assay with SN12C renal it was 3.72 µM; in the assay with K-562 leukemia, 2.3 µM. Besides, the GI50 in the assay on OVCAR-3 ovarian is 4.17 µM; in the assay with CAKI-1 renal, 3.88 µM; with OVCAR-8 ovarian it was 2.82 µM; with COLO 205 colon, 2.32 µM. Also, the TGI stood at 29.3 µM in the assay on HOP-62 NSCLC; 16.4 µM in the assay with DU-145 prostate; 33.8 µM in the assay with BT-549 breast; 27.9 µM in the assay with UACC-62 melanoma; 16.1 µM in the assay on SN12C renal; 6.85 µM with K-562 leukemia. Besides, the TGI is 15.3 µM with OVCAR-3 ovarian, 15.9 µM in the assay with CAKI-1 renal, 11.4 µM in the assay on OVCAR-8 ovarian and 5.91 µM in the assay with COLO 205 colon.

With `O=C1C(Nc2cccc(O)c2)=C(Sc2ccccc2)C(=O)N1Cc1ccccc1`, the GI50 was 14.8 µM in the assay on HOP-62 NSCLC; 16.2 µM with DU-145 prostate; 11.2 µM in the assay with BT-549 breast; 5.3 µM in the assay on UACC-62 melanoma; 13 µM in the assay with SN12C renal; 3.71 µM in the assay on K-562 leukemia. Further, the GI50 with OVCAR-3 ovarian was 4.83 µM; with CAKI-1 renal it was 21.6 µM; in the assay with OVCAR-8 ovarian, 11.9 µM; with COLO 205 colon, 17 µM. The TGI in the assay with HOP-62 NSCLC worked out at 28.8 µM; in the assay with DU-145 prostate, 33.3 µM; in the assay on BT-549 breast it was 43.5 µM; in the assay with UACC-62 melanoma, 18.9 µM; in the assay with SN12C renal, 29.6 µM; in the assay on K-562 leukemia it was 17.1 µM. In addition, the TGI with OVCAR-3 ovarian was found to be 19.9 µM; in the assay on CAKI-1 renal, 55.2 µM; in the assay on OVCAR-8 ovarian, 26.9 µM; in the assay on COLO 205 colon, 35.9 µM.

On to `COC(=O)c1cc([N+](=O)[O-])cc([N+](=O)[O-])c1Cl`, for which the GI50 in the assay on HOP-62 NSCLC was 2.65 µM; with DU-145 prostate, 2.3 µM; with BT-549 breast it was 10.7 µM; in the assay with UACC-62 melanoma it was 1.55 µM; with SN12C renal, 3.15 µM; in the assay with K-562 leukemia it was 2.24 µM. For the same compound, the GI50 with OVCAR-3 ovarian is 1.78 µM; in the assay on CAKI-1 renal, 1.73 µM; in the assay on OVCAR-8 ovarian it was 2.01 µM; in the assay on COLO 205 colon, 1.65 µM. The TGI is 8.09 µM with HOP-62 NSCLC; 6.6 µM with DU-145 prostate; 22.6 µM with BT-549 breast; 3.1 µM with UACC-62 melanoma; 11 µM with SN12C renal; greater than 100 µM with K-562 leukemia. For the same compound, the TGI in the assay on OVCAR-3 ovarian was found to be 3.2 µM; with CAKI-1 renal, 3.28 µM; in the assay with OVCAR-8 ovarian, 4.38 µM; in the assay with COLO 205 colon, 3.1 µM.

In the case of `CN1CCCC1c1cccnc1.O=C(O)c1ccccc1O.O=C([O-])c1ccccc1[OH2+].O=C([O-])c1ccccc1[OH2+].[Mn+2]` (stereo not given), the GI50 is greater than 100 µM with HOP-62 NSCLC; greater than 100 µM in the assay on DU-145 prostate; 54.3 µM in the assay on BT-549 breast; greater than 100 µM with UACC-62 melanoma; greater than 100 µM in the assay with SN12C renal; greater than 100 µM with K-562 leukemia. For the same compound, the GI50 is 21.3 µM in the assay on OVCAR-3 ovarian, greater than 100 µM with CAKI-1 renal, greater than 100 µM in the assay with OVCAR-8 ovarian and greater than 100 µM in the assay with COLO 205 colon. In addition, the TGI with HOP-62 NSCLC, with DU-145 prostate, in the assay with BT-549 breast, in the assay with UACC-62 melanoma, in the assay with SN12C renal and with K-562 leukemia was greater than 100 µM each time. For the same compound, the TGI in the assay on OVCAR-3 ovarian was 70.5 µM; in the assay with CAKI-1 renal, greater than 100 µM; in the assay on OVCAR-8 ovarian, greater than 100 µM; with COLO 205 colon, greater than 100 µM.
